The nature of this series: Conversion of prodrugs to NDMC in vivo (plasma and brain levels of NDMC by LC-MS/MS after oral dosing).

Experimental: Male, Sprauge-Dawly rats (200-225 grams, Harlan, San Diego, Calif.) implanted with jugular vein cannulae served as experimental subjects. Rats were fasted for approximately 16 hours and then dosed orally with one of several test compounds. All test compounds were administered at a fixed dose of 10 mg/kg (freebase) in a volume of 1 mL/kg. Venous blood samples were collected 0, 30, 60 and 120 min following test compound administration. Samples were placed into heparinized tubes and centrifuged to obtain plasma. Additionally, whole brains were harvested at the 120 min time point in order to determine brain levels of test compounds. Plasma samples, brains and any remaining dosing solutions were stored at −80° C. until analyzed.
The thawed plasma samples were processed by protein precipitation using acetonitrile. Following centrifugation the supernatant was diluted appropriately and transferred to the analysis deep well plate for analysis. […]
Calibration samples and samples were analyzed by LC-MS/MS using positive electrospray ionization. […]
Samples were analyzed using multiple reaction monitoring (MRM). […]
4.0.1 and the area under the curve (AUC0-120) of NDMC was calculated. In vivo conversion to NDMC was calculated from the dose-normalized ratio of AUC0-120 of NDMC following administration of pro-drug and NDMC, respectively.

With `Clc1ccc2c(c1)N=C(N1CCNCC1)c1ccccc1N2` [NDMC, N-desmethylclozapine], the “Plasma AUC(0-120 min) of NDMC” value (male Sprague-Dawley rats, fasted, oral 10 mg/kg (freebase) of compound administered, plasma 0-120 min) worked out at 1.298 µM·h. Further, the “Mean brain concentration of NDMC at 120 min (SD)” value (rats, oral 10 mg/kg, whole brain at 120 min, n = 3) is 255 (56) nmol/(kg).
